How the values were obtained:
[1] = system: E. cloacae; assay: ESBL NDP test using cultured strains; format: biochemical, Enterobacter cloacae; parameters: key: (+) and (−) referred to color change being, red to yellow or unchanged, respectively; (+) and (−) referred to color change being, red to yellow or unchanged, respectively
Description: (§1) Strains were isolated on Mueller-Hinton agar (Biorad, Marnes-la-Coquette, France) and incubated at 37° C. for 16 h to 24 h before performing the NDP rapid ESBL test as follows. One calibrated inoculated loop (10 μl) of the tested strain was resuspended in 150 μl of 20 mM Tris-HCl lysis buffer previously distributed in Microbead tubes (Ultraclean Microbial DNA isolation kit Bead Tubes, MO BIO Laboratories, Carlsbad, USA). Mechanical lysis of bacteria was performed by strong agitation of Microbead tubes using a vortex adapter (MO BIO Laboratories) for 30 min at room temperature. This bacterial suspension was centrifuged at 10,000×g at room temperature for 5 min. Thirty μl of the supernatant was mixed in a well of a 96-well tray with 100 μl of a 1 ml solution made of 3 mg of purified cefotaxime sodium salt (Sigma-Aldrich, Saint-Quentin-Fallavier, France) in a pH 7.8 phenol red solution. […]. The phenol red solution was made by taking 2 ml of a concentrated pH 8 phenol solution (made from a mixture of phenol red 0.5% in distilled water) to which 16.6 ml of distilled water was added. The pH value was then adjusted to a 7.8 value by adding drops of a 1 N NaOH solution. Mixture of the phenol red solution and the enzymatic suspension being tested was incubated at 37° C. for 30 min. Similarly, culture extracts were analyzed in wells containing cefotaxime and tazobactam (4 mg/ml). Other concentrations of tazobactam and other ß-lactamase inhibitors were tested giving less clear results (data not shown). […] This definition of test positivity will be applied throughout the study.

[2] = system: C. brakii; assay: ESBL NDP test using cultured strains; format: biochemical; parameters: key: (+) and (−) referred to color change being, red to yellow or unchanged, respectively; (+) and (−) referred to color change being, red to yellow or unchanged, respectively; details: C. brakii Wild-type, chromosome-encoded cephalosporinase, n=1
Description: as §1

[3] = system: E. sakazakii; assay: ESBL NDP test using cultured strains; format: biochemical; parameters: key: (+) and (−) referred to color change being, red to yellow or unchanged, respectively; (+) and (−) referred to color change being, red to yellow or unchanged, respectively; details: overexpressed chromosome-encoded cephalosporinase, n=1
Description: as §1

[4] = system: S. thyphimurium; assay: ESBL NDP test using cultured strains; format: biochemical; parameters: key: (+) and (−) referred to color change being, red to yellow or unchanged, respectively; (+) and (−) referred to color change being, red to yellow or unchanged, respectively; details: S. thyphimurium 10.81, CTX-M-1
Description: as §1

[5] = system: S. ficaria; assay: ESBL NDP test using cultured strains; format: biochemical; parameters: key: (+) and (−) referred to color change being, red to yellow or unchanged, respectively; (+) and (−) referred to color change being, red to yellow or unchanged, respectively
Description: as §1

[6] = system: M. morganii; assay: Susceptibility testing, MIC by Etest; format: cell-based, Morganella morganii; details: M. morganii Wild-type, chromosome-encoded cephalosporinase, n=2
Description: (§2) Susceptibility testing was performed by determining MIC values using the Etest® (AB bioMérieux; Solna, Sweden) on Mueller-Hinton agar plates at 37° C. and results were recorded according to US guidelines (CLSI), as updated in 2012 (2). The breakpoints for cefotaxime are susceptible (S)≤1 and resistant (R)≥4 μg/ml, and for ceftazidime S≤4 and R≥16 μg/ml.

[7] = system: K. oxytoca; assay: ESBL NDP test using cultured strains; format: biochemical, Klebsiella oxytoca; parameters: key: (+) and (−) referred to color change being, red to yellow or unchanged, respectively; (+) and (−) referred to color change being, red to yellow or unchanged, respectively; details: K. oxytoca Wild-type penicillinase, n=1
Description: (§3) Strains were isolated on Mueller-Hinton agar (Biorad, Marnes-la-Coquette, France) and incubated at 37° C. for 16 h to 24 h before performing the NDP rapid ESBL test as follows. One calibrated inoculated loop (10 μl) of the tested strain was resuspended in 150 μl of 20 mM Tris-HCl lysis buffer previously distributed in Microbead tubes (Ultraclean Microbial DNA isolation kit Bead Tubes, MO BIO Laboratories, Carlsbad, USA). Mechanical lysis of bacteria was performed by strong agitation of Microbead tubes using a vortex adapter (MO BIO Laboratories) for 30 min at room temperature. This bacterial suspension was centrifuged at 10,000×g at room temperature for 5 min. Thirty μl of the supernatant was mixed in a well of a 96-well tray with 100 μl of a 1 ml solution made of 3 mg of purified cefotaxime sodium salt (Sigma-Aldrich, Saint-Quentin-Fallavier, France) in a pH 7.8 phenol red solution. […]. The phenol red solution was made by taking 2 ml of a concentrated pH 8 phenol solution (made from a mixture of phenol red 0.5% in distilled water) to which 16.6 ml of distilled water was added. The pH value was then adjusted to a 7.8 value by adding drops of a 1 N NaOH solution. Mixture of the phenol red solution and the enzymatic suspension being tested was incubated at 37° C. for 30 min. Similarly, culture extracts were analyzed in wells containing cefotaxime and tazobactam (4 mg/ml). […]

[8] = system: P. stuartii; assay: ESBL NDP test using cultured strains; format: biochemical, Providencia stuartii; parameters: key: (+) and (−) referred to color change being, red to yellow or unchanged, respectively; (+) and (−) referred to color change being, red to yellow or unchanged, respectively; details: P. stuartii TEM-24, n=1
Description: as §3

[9] = system: C. freundii; assay: ESBL NDP test using spiked blood cultures; format: biochemical, Citrobacter freundii; parameters: key: (+) and (−) referred to color change being, red to yellow or unchanged, respectively; (+) and (−) referred to color change being, red to yellow or unchanged, respectively; details: C. freundii BG 1106 7767, Wild-type
Description: as §3, with “The phenol red solution was made by taking 2 ml of a concentrated pH 8 phenol solution (made from a mixture of phenol red 0.5% in distilled water) to which 16.6 ml of distilled water was added. The pH value was then adjusted to a 7.8 value by adding drops of a 1 N NaOH solution. Mixture of the phenol red solution and the enzymatic suspension being tested was incubated at 37° C. for 30 min.” left out
Rapid detection of ESBL producers was attempted from spiked blood cultures which positivity was assessed using the BactAlert blood culture system (bioMérieux). […] Spiked blood cultures were made of 1×10^3 CFU of each strain and incubated 24 to 48 h before a positivity of the blood culture was detected by the BactAlert system. […]

[10] = system: S. enterica; assay: Susceptibility testing, MIC by Etest; format: cell-based, Salmonella enterica
Description: as §2

[11] = system: C. freundii; assay: ESBL NDP test using cultured strains; format: biochemical, Citrobacter freundii; parameters: key: (+) and (−) referred to color change being, red to yellow or unchanged, respectively; (+) and (−) referred to color change being, red to yellow or unchanged, respectively
Description: as §1

SMILES: CO/N=C(\C(=O)N[C@@H]1C(=O)N2C(C(=O)O)=C(COC(C)=O)CS[C@H]12)c1csc(N)n1 [CTX, cefotaxime]
- ESBL NDP Test from: Colonies ([1]; E. cloacae 09.57, SHV-12): +
- ESBL NDP Test from: Colonies ([1]; E. cloacae 10.75, CTX-M-15): +
- ESBL NDP Test from: Colonies ([1]; E. cloacae 10.87, CTX-M-15): +
- ESBL NDP Test from: Colonies ([1]; E. cloacae BG 1106 7725, Wild-type): −
- ESBL NDP Test from: Colonies ([1]; E. cloacae BG 1106 7746, Wild-type): −
- ESBL NDP Test from: Colonies ([1]; E. cloacae BG 1107 4118, Wild-type): −
- Test (color change) ([1]; E. cloacae CTX-M-14, n=1): +
- Test (color change) ([1]; E. cloacae CTX-M-15, n=17): +
- Test (color change) ([1]; E. cloacae GES-5, n=1): +
- Test (color change) ([1]; E. cloacae PER-1, n=1): +
- Test (color change) ([1]; E. cloacae SHV-5, n=1): +
- Test (color change) ([1]; E. cloacae SHV-12, n=6): +
- Test (color change) ([1]; E. cloacae TEM-3, n=2): +
- Test (color change) ([1]; E. cloacae VEB-1, n=1): +
- Test (color change) ([1]; E. cloacae Wild-type, chromosome-encoded cephalosporinase, n=5): −
- Test (color change) ([1]; E. cloacae, overexpressed chromosome-encoded cephalosporinase, n=2): −
- Test (color change) ([1]; E. cloacae, overexpressed chromosome-encoded cephalosporinase, n=3): +
- Test (color change) [2]: −
- Test (color change) [3]: −
- ESBL NDP Test from: Colonies [4]: +
- ESBL NDP Test from: Colonies ([5]; S. ficaria CIP 104255, Wild-type): −
- Test (color change) ([5]; S. ficaria Wild-type, chromosome-encoded cephalosporinase, n=1): −
- MICs range [6]: 0.03 to 0.75 µg/mL
- Test (color change) [7]: −
- Test (color change) [8]: −
- ESBL NDP Test from: Blood culture [9]: −
- MICs range ([10]; S. enterica CTX-M-1, n=1): >16 µg/mL
- MICs range ([10]; S. enterica Wild-type, no resistance, n=1): 0.05 µg/mL
- ESBL NDP Test from: Colonies ([11]; C. freundii BG 1106 7767, Wild-type): −
- Test (color change) ([11]; C. freundii CTX-M-15, n=3): +
- Test (color change) ([11]; C. freundii TEM-3, n=1): +
- Test (color change) ([11]; C. freundii Wild-type, chromosome-encoded cephalosporinase, n=1): −
